Results published in ChEMBL document CHEMBL1201862, “PubChem BioAssay data set” (2004).
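Values below derive from 48-hour exposures of cells grown in 96-well plates, with endpoints linearly interpolated between the two concentrations bracketing the appropriate inhibition level. GI50: concentration for 50% inhibition of growth.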 Activity calls are given as the source filed them. No stated cut-off is given here; in the data, active = GI50 up to about 1.1 µM and inactive = higher.

Legend:
Assay in all cases: NCI anticancer screen, dose series, 48 h
UACC-62 = tested on: UACC-62
SK-MEL-5 = tested on: SK-MEL-5
KM12 = tested on: KM12
SR = tested on: SR
CCRF-CEM = tested on: CCRF-CEM
TK-10 = tested on: TK-10
HL-60 = tested on: HL-60
HCT-116 = tested on: HCT-116
SNB-19 = tested on: SNB-19
NCI-H522 = tested on: NCI-H522
NCI-H460 = tested on: NCI-H460
A498 = tested on: A498
CAKI-1 = tested on: CAKI-1
HCC 2998 = tested on: HCC 2998
PC-3 = tested on: PC-3
OVCAR-4 = tested on: OVCAR-4
UACC-257 = tested on: UACC-257
COLO 205 = tested on: COLO 205
EKVX = tested on: EKVX
DU-145 = tested on: DU-145

| SMILES | GI50 (UACC-62) | GI50 (SK-MEL-5) | GI50 (KM12) | GI50 (SR) | GI50 (CCRF-CEM) | GI50 (TK-10) | GI50 (HL-60) | GI50 (HCT-116) | GI50 (SNB-19) | GI50 (NCI-H522) | GI50 (NCI-H460) | GI50 (A498) | GI50 (CAKI-1) | GI50 (HCC 2998) | GI50 (PC-3) | GI50 (OVCAR-4) | GI50 (UACC-257) | GI50 (COLO 205) | GI50 (EKVX) | GI50 (DU-145) |
| --- | --- | --- | --- | --- | --- | --- | --- | --- | --- | --- | --- | --- | --- | --- | --- | --- | --- | --- | --- | --- |
| CCOC(=O)NNC(=O)NCc1ccccc1CNC(=O)NNC(=O)OCC | > 100 µM (inactive) | > 100 µM (inactive) | > 100 µM (inactive) | > 100 µM (inactive) | > 100 µM (inactive) | > 100 µM (inactive) | > 100 µM (inactive) | > 100 µM (inactive) | > 100 µM (inactive) | > 100 µM (inactive) | > 100 µM (inactive) | > 100 µM (inactive) | > 100 µM (inactive) | > 100 µM (inactive) | > 100 µM (inactive) | > 100 µM (inactive) | > 100 µM (inactive) | > 100 µM (inactive) | > 100 µM (inactive) | > 100 µM (inactive) |
| CC(N)(Cc1c[nH]c2ccccc12)C(=O)O (stereo not given) | > 100 µM (inactive) | > 100 µM (inactive) | > 100 µM (inactive) | > 100 µM (inactive) | > 100 µM (inactive) | > 100 µM (inactive) | > 100 µM (inactive) | > 100 µM (inactive) | > 100 µM (inactive) | > 100 µM (inactive) | > 100 µM (inactive) | > 100 µM (inactive) | > 100 µM (inactive) | > 100 µM (inactive) | > 100 µM (inactive) | > 100 µM (inactive) | > 100 µM (inactive) | > 100 µM (inactive) | > 100 µM (inactive) | > 100 µM (inactive) |
| CCOC(=O)/C(C(N)=O)=C(O)/C(O)=C(\Br)C(=O)c1ccccc1 | 17.8 µM (inactive) | 16.6 µM (inactive) | 18.1 µM (inactive) | 3.68 µM (inactive) | 0.979 µM (active) | 19 µM (inactive) | 0.0622 µM (active) | 16.4 µM (inactive) | 47 µM (inactive) | 1.72 µM (inactive) | 24.8 µM (inactive) | > 100 µM (inactive) | 11.1 µM (inactive) | 22 µM (inactive) | 17.4 µM (inactive) | 22 µM (inactive) | 17.9 µM (inactive) | 17.3 µM (inactive) | 23.9 µM (inactive) | 19.6 µM (inactive) |
| CCOC(=O)n1ccc2c(C(=O)OC)c(C(=O)OC)cc(/C(=C/C(=O)OC)C(=O)OC)c21 | 82.2 µM (inactive) | > 100 µM (inactive) | > 100 µM (inactive) | 79.8 µM (inactive) | 10.4 µM (inactive) | > 100 µM (inactive) | > 100 µM (inactive) | 89.3 µM (inactive) | > 100 µM (inactive) | 57.1 µM (inactive) | > 100 µM (inactive) | > 100 µM (inactive) | > 100 µM (inactive) | > 100 µM (inactive) | > 100 µM (inactive) | > 100 µM (inactive) | > 100 µM (inactive) | > 100 µM (inactive) | > 100 µM (inactive) | > 100 µM (inactive) |
